Source: patent US12157730B2, “Heteroaryl derivative, method for producing same, and pharmaceutical composition comprising same as effective component” (VORONOI INC., priority 2019, dated 2024)

biological target: T1, Ba/F3 cell EGFR Exon20 ins NPH (Homo sapiens, UniProt P00533, INS773NPH); assay: Ba/F3 cell proliferation suppression, EGFR Exon20 ins NPH; assay type: cell-based; settings: GI50 class; Ba/F3 cell line with NPH inserted at Exon20 of EGFR; 72 hours
T1 construct: expressed in transfected cells; host or cells: Ba/F3
In short: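 Growth suppression determined as GI50 following 72 h exposure across 12 concentrations up to 50 um, with viability by luminescent ATP assay (CellTiter-Glo).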

Structure (SMILES) | Ba/F3 (NPH) Activity
C=CC(=O)Nc1cc(Nc2cc(N3OCC[C@@H]3c3cc(F)cc(F)c3)ncn2)c(O[C@H](C)C(F)(F)F)cc1N1CCC(N2CCN(C3CC3)CC2)CC1 [Example 119, N-(2-(4-(4-cyclopropylpiperazine-1-yl)piperidine-1-yl)-5-((6-((R)-3-(3,5-difluorophenyl)isoxazolidine-2-yl)pyrimidine-4-yl)amino)-4-(((R)-1,1,1-trifluoropropane-yl)oxy)phenyl)acrylamide] | A (GI50 < 50 nM)
C=CC(=O)Nc1cc(Nc2cc(N3OCC[C@@H]3c3cccc(F)c3)ncn2)c(OC)cc1N1CCC(N2CCN(C3COC3)CC2)CC1 [Example 80, N-(5-((6-((R)-3-(3-fluorophenyl)isoxazolidine-2-yl)pyrimidine-4-yl)amino)-4-methoxy-2-(4-(4-(oxetane-3-yl)piperazine-1-yl)piperidine-1-yl)phenyl) acrylamide] | A (GI50 < 50 nM)
C=CC(=O)Nc1cc(Nc2cc(N3OCC[C@@H]3c3cccc(C#N)c3)ncn2)c(OC)cc1N1CCC(N2CCN(C3CC3)[C@@H](C)C2)CC1 [Example 125, N-(5-((6-((R)-3-(3-cyanophenyl)isoxazolidine-2-yl)pyrimidine-4-yl)amino)-2-(4-((S)-4-cyclopropyl-3-methylpiperazine-1-yl)piperidine-1-yl)-4-methoxyphenyl) acrylamide] | A (GI50 < 50 nM)
C=CC(=O)Nc1cc(Nc2cc(N3OCC[C@@H]3c3ccc(F)cc3F)ncn2)c(OC)cc1N1CCC(N2CCN(CC)CC2)CC1 [compound 424, N-(5-((6-((R)-3-(2,4-difluorophenyl)isoxazolidine-2-yl)pyrimidine-4-yl)amino)-2-(4-(4-ethylpiperazine-1-yl)piperidine-1-yl)-4-methoxyphenyl) acrylamide] | A (GI50 < 50 nM)
C=CC(=O)Nc1cc(Nc2cc(N3OCC[C@@H]3c3cccc(Cl)c3Cl)ncn2)c(OC)cc1N1CCC(N2CCN(C3CCCC3)CC2)CC1 [Example 206, N-(2-(4-(4-cyclopentylpiperazine-1-yl)piperidine-1-yl)-5-((6-((R)-3-(2,3-dichlorophenyl)isoxazolidine-2-yl)pyrimidine-4-yl)amino)-4-methoxyphenyl) acrylamide] | B (50 nM ≤ GI50 < 500 nM)

Now from value to compound:

Ba/F3 (NPH) Activity | Structure (SMILES)
A (GI50 < 50 nM) | C=CC(=O)Nc1cc(Nc2cc(N3OCC[C@@H]3c3ccc(F)cc3)ncn2)c(OC)cc1N1CCC(N2C[C@H]3CCN(C)[C@H]3C2)CC1 [compound 541, N-(5-((6-((R)-3-(4-fluorophenyl)isoxazolidine-2-yl)pyrimidine-4-yl)amino)-4-methoxy-2-(4-((3aR,6aR)-1-methylhexahydropyrrolo [3,4-b]pyrrole-5(1H)-yl)piperidine-1-yl)phenyl)acrylamide]
A (GI50 < 50 nM) | C=CC(=O)Nc1cc(Nc2cc(N3OCC[C@@H]3c3cccc(Cl)c3F)ncn2)c(OC)cc1N1CCC(N(C)C)CC1 [compound 790, N-(5-((6-((R)-3-(3-chloro-2-fluorophenyl)isoxazolidine-2-yl)pyrimidine-4-yl)amino)-2-(4-(dimethylamino)piperidine-1-yl)-4-methoxyphenyl) acrylamide]
A (GI50 < 50 nM) | C=CC(=O)Nc1cc(Nc2cc(N3OCC[C@@H]3c3ccc(Cl)cc3F)ncn2)c(OC)cc1N1CCC(N2C[C@H]3C[C@@H]2CO3)CC1 [compound 548, N-(2-(4-((1R,4R)-2-oxa-5-azabicyclo[2.2.1]heptane-5-yl)piperidine-1-yl)-5-((6-((R)-3-(4-chloro-2-fluorophenyl)isoxazolidine-2-yl)pyrimidine-4-yl)amino)-4-methoxyphenyl) acrylamide]
A (GI50 < 50 nM) | C=CC(=O)Nc1cc(Nc2cc(N3OCC[C@@H]3c3cc(F)ccc3F)ncn2)c(OC)cc1N(C)CCN(C)C [compound 882, N-(5-((6-((R)-3-(2,5-difluorophenyl)isoxazolidine-2-yl)pyrimidine-4-yl)amino)-2-((2-(dimethylamino)ethyl)(methyl)amino)-4-methoxyphenyl) acrylamide]
